Experiments:
[1] = Stability study at 25° C./60% RH, 40° C./75% RH and 60° C. (XRPD, HPLC purity, impurity tracking); conditions: for XRPD: * = crystalline salt; for HPLC: based on free acid
Text: Stability of HBI-3808 Sodium Salt Pattern 2 was studied over 13 weeks.
Table 2F presents impurity tracking results from a 13-week stability study of HBI-3808 sodium salt of Pattern 2. […]

[2] = Varying humidity (VH)-XRPD; format: physicochemical; conditions: 0-90% RH
Protocol: During the sorption phase, sodium salt Pattern 2 was observed between 40-60% RH. […] A mixture of sodium salt Pattern 2 and 5 was also observed at 80% RH. […] During the second desorption, from 90% RH to 40% RH, sodium salt Pattern 5 was maintained.
VH-XRPD analysis was carried out between 40-0% RH (FIG. 5L).

[3] = 40° C./75% RH (open vial), 4 Weeks
[4] = 40° C./75% RH (open vial), 8 Weeks
[5] = 40° C./75% RH (open vial), 13 Weeks

SMILES: C[C@@H]1CC[C@]2(C(=O)O)CC[C@]3(C)C(=CC[C@@H]4[C@@]5(C)C[C@@H](O)[C@H](O)[C@@](C)(CO)[C@@H]5CC[C@]43C)[C@@H]2[C@]1(C)O.NCCO [ethanolamine salt of HBI-3808, ETHANOLAMINE SALT OF 23-HYDROXYTORMENTIC ACID]
- XRPD [1, 3]: 1*
- HPLC [1, 3]: 97.5 % area
- XRPD [1, 4]: 1*
- HPLC [1, 4]: 96.9 % area
- XRPD [1, 5]: 1*
- HPLC [1, 5]: 97.4 % area
- RRT 0.801 impurity ([1]; 40° C./75% RH, 1 week): 0.10 % area
- RRT 0.970 impurity ([1]; 40° C./75% RH, 1 week): 0.14 % area
- RRT 1.000 (HBI-3808) ([1]; 40° C./75% RH, 1 week): 97.28 % area
- RRT 1.025 (Isomer of HBI-3808) ([1]; 40° C./75% RH, 1 week): 2.48 % area
- Total Impurities ([1]; 40° C./75% RH, 1 week): 2.72 % area
- RRT 0.970 impurity ([1]; 40° C./75% RH, 2 weeks): 0.12 % area
- RRT 1.000 (HBI-3808) ([1]; 40° C./75% RH, 2 weeks): 97.26 % area
- RRT 1.025 (Isomer of HBI-3808) ([1]; 40° C./75% RH, 2 weeks): 2.40 % area
- RRT 1.935 impurity ([1]; 40° C./75% RH, 2 weeks): 0.22 % area
- Total Impurities ([1]; 40° C./75% RH, 2 weeks): 2.74 % area
- RRT 0.970 impurity ([1]; 40° C./75% RH, 4 weeks): 0.11 % area
- RRT 1.025 (Isomer of HBI-3808) ([1]; 40° C./75% RH, 4 weeks): 2.41 % area
- Total Impurities ([1]; 40° C./75% RH, 4 weeks): 2.52 % area
- RRT 0.970 impurity ([1]; 40° C./75% RH, 8 weeks): 0.21 % area
- RRT 1.000 (HBI-3808) ([1]; 40° C./75% RH, 8 weeks): 96.88 % area
- RRT 1.025 (Isomer of HBI-3808) ([1]; 40° C./75% RH, 8 weeks): 2.51 % area
- RRT 1.767 impurity ([1]; 40° C./75% RH, 8 weeks): 0.40 % area
- Total Impurities ([1]; 40° C./75% RH, 8 weeks): 3.12 % area
- RRT 1.000 (HBI-3808) ([1]; 40° C./75% RH, 13 weeks): 97.41 % area
- RRT 1.025 (Isomer of HBI-3808) ([1]; 40° C./75% RH, 13 weeks): 2.40 % area
- RRT 1.935 impurity ([1]; 40° C./75% RH, 13 weeks): 0.20 % area
- Total Impurities ([1]; 40° C./75% RH, 13 weeks): 2.59 % area
- RRT 1.000 (HBI-3808) ([1]; 40° C./75% RH, T = 0): 97.82 % area
- RRT 1.025 (Isomer of HBI-3808) ([1]; 40° C./75% RH, T = 0): 2.18 % area
- Total Impurities ([1]; 40° C./75% RH, T = 0): 2.18 % area
- HPLC/ % area ([1]; 60° C. (closed vial), 13 Weeks): 97.4 % area
- XRPD ([1]; 60° C. (closed vial), 1 Week): 1*
- HPLC ([1]; 60° C. (closed vial), 1 Week): 97.5 % area
- XRPD ([1]; 60° C. (closed vial), 2 Weeks): 1*
- HPLC ([1]; 60° C. (closed vial), 2 Weeks): 97.3 % area
- XRPD ([1]; 60° C. (closed vial), 4 Weeks): 1*
- HPLC ([1]; 60° C. (closed vial), 4 Weeks): 97.5 % area
- XRPD ([1]; 60° C. (closed vial), 8 Weeks): 1*
- HPLC ([1]; 60° C. (closed vial), 8 Weeks): 97.0 % area
- XRPD ([1]; 60° C. (closed vial), 13 Weeks): 1*
- HPLC ([1]; 60° C. (closed vial), 13 Weeks): 97.4 % area
- RRT 0.801 impurity ([1]; 60° C., 1 week): 0.12 % area
- RRT 1.000 (HBI-3808) ([1]; 60° C., 1 week): 97.46 % area
- RRT 1.025 (Isomer of HBI-3808) ([1]; 60° C., 1 week): 2.43 % area
- Total Impurities ([1]; 60° C., 1 week): 2.54 % area
- RRT 0.970 impurity ([1]; 60° C., 2 weeks): 0.12 % area
- RRT 1.000 (HBI-3808) ([1]; 60° C., 2 weeks): 97.27 % area
- RRT 1.025 (Isomer of HBI-3808) ([1]; 60° C., 2 weeks): 2.41 % area
- RRT 1.935 impurity ([1]; 60° C., 2 weeks): 0.20 % area
- Total Impurities ([1]; 60° C., 2 weeks): 2.73 % area
- RRT 0.970 impurity ([1]; 60° C., 4 weeks): 0.11 % area
- RRT 1.000 (HBI-3808) ([1]; 60° C., 4 weeks): 97.49 % area
- RRT 1.025 (Isomer of HBI-3808) ([1]; 60° C., 4 weeks): 2.40 % area
- Total Impurities ([1]; 60° C., 4 weeks): 2.51 % area
- RRT 0.970 impurity ([1]; 60° C., 8 weeks): 0.12 % area
- RRT 1.000 (HBI-3808) ([1]; 60° C., 8 weeks): 97.04 % area
- RRT 1.025 (Isomer of HBI-3808) ([1]; 60° C., 8 weeks): 2.49 % area
- RRT 1.767 impurity ([1]; 60° C., 8 weeks): 0.35 % area
- Total Impurities ([1]; 60° C., 8 weeks): 2.96 % area
- RRT 1.000 (HBI-3808) ([1]; 60° C., 13 weeks): 97.41 % area
- RRT 1.025 (Isomer of HBI-3808) ([1]; 60° C., 13 weeks): 2.41 % area
- RRT 1.935 impurity ([1]; 60° C., 13 weeks): 0.18 % area
- Total Impurities ([1]; 60° C., 13 weeks): 2.59 % area
- RRT 1.000 (HBI-3808) ([1]; 60° C., T = 0): 97.82 % area
- RRT 1.025 (Isomer of HBI-3808) ([1]; 60° C., T = 0): 2.18 % area
- Total Impurities ([1]; 60° C., T = 0): 2.18 % area
- input purity by HPLC ([1]; input material of the stability study (baseline)): 97.5 % area
- XRPD pattern / form stability over relative humidity [2]: no changes in XRPD Pattern
